Source: ChEMBL document CHEMBL4680330, “Soloxolone methyl, as a 18βH-glycyrrhetinic acid derivate, may result in endoplasmic reticulum stress to induce apoptosis in breast cancer cells” (Bioorg Med Chem, 2021)
The source made the active and inactive calls. No cut-off for these calls is given here.

Experiments:
MCF7 [1] = experiment: Cytotoxicity against human MCF7 cells assessed as reduction in cell viability incubated for 48 hrs by ATP based luminometry; format: functional; conditions: MCF7, 48 h
MDA-MB-231 [2] = experiment: Cytotoxicity against human MDA-MB-231 cells assessed as reduction in cell viability incubated for 24 hrs by ATP based luminometry; format: functional; conditions: MDA-MB-231, 24 h
MDA-MB-231 [3] = experiment: Cytotoxicity against human MDA-MB-231 cells assessed as reduction in cell viability incubated for 48 hrs by ATP based luminometry; format: functional; conditions: MDA-MB-231, 48 h
MCF7 [4] = experiment: Induction of apoptosis in human MCF7 cells assessed as PARP level at 10 uM incubated for 24 hrs by Western blot analysis (reference value: 1); format: functional
MCF7 [5] = experiment: Induction of early apoptosis in human MCF7 cells assessed as increase in PI negativity at 10 uM incubated for 24 hrs by Hoechst 33342 and PI staining based fluorescence microscopic analysis; format: functional, cell-based
MCF7 [6] = experiment: Induction of late apoptosis in human MCF7 cells assessed as increase in PI […] at 10 uM by Hoechst 33342 and PI staining based fluorescence microscopic analysis; format: functional, cell-based; conditions: TDE = time-dependent effect
MDA-MB-231 [7] = experiment: Induction of early apoptosis in human MDA-MB-231 cells assessed as increase in rate of formation of pycnotic nuclei at 10 uM incubated for 24 hrs by Hoechst 33342 and PI staining based fluorescence microscopic analysis; format: functional, cell-based
MDA-MB-231 [8] = experiment: Induction of late apoptosis in human MDA-MB-231 cells assessed as increase in rate of formation of pycnotic nuclei at 10 uM by Hoechst 33342 and PI staining based fluorescence microscopic analysis; format: functional, cell-based; conditions: TDE = time-dependent effect
MCF7 [9] = experiment: Induction of apoptosis in human MCF7 cells assessed as cytokeratin 18 by measuring increase in M-30 level at 10 uM incubated for 24 hrs by ELISA; format: functional, cell-based
MCF7 [10] = experiment: Induction of apoptosis in human MCF7 cells assessed as early apoptotic cells at 10 uM incubated for 24 hrs by annexin V-FITC and PI staining based flow cytometry analysis (reference value: 0.20 %); format: functional
MCF7 [11] = experiment: Induction of apoptosis in human MCF7 cells assessed as necrotic cells at 10 uM incubated for 24 hrs by annexin V-FITC and PI staining based flow cytometry analysis (reference value: 15.60 %); format: functional
MDA-MB-231 [12] = experiment: Induction of apoptosis in human MDA-MB-231 cells assessed as viable cells at 10 uM incubated for 24 hrs by annexin V-FITC and PI staining based flow cytometry analysis (reference value: 94.40 %); format: functional; conditions: read-out: Activity
MDA-MB-231 [13] = experiment: Induction of apoptosis in human MDA-MB-231 cells assessed as necrotic cells at 10 uM incubated for 24 hrs by annexin V-FITC and PI staining based flow cytometry analysis (reference value: 0.95 %); format: functional
MCF7 [14] = experiment: Induction of apoptosis in human MCF7 cells at 10 uM by annexin V-FITC and PI staining based flow cytometry analysis; format: functional, cell-based; conditions: TDE = time-dependent effect
[15] = Induction of caspase 3/7 activity in human MCF7 cells assessed as induction of apoptosis by measuring viable cells at 10 uM incubated for 24 hrs by flow cytometry analysis (reference value: 73.10 %); format: functional
[16] = Induction of caspase 3/7 activity in human MCF7 cells assessed as induction of apoptosis by measuring early apoptotic cells at 10 uM incubated for 24 hrs by flow cytometry analysis (reference value: 0.70 %); format: functional
[17] = Induction of caspase 3/7 activity in human MCF7 cells assessed as induction of apoptosis by measuring late apoptotic cells at 10 uM incubated for 24 hrs by flow cytometry analysis (reference value: 22.90 %); format: functional
[18] = Induction of caspase 3/7 activity in human MDA-MB-231 cells assessed as induction of apoptosis by measuring viable cells at 10 uM incubated for 24 hrs by flow cytometry analysis (reference value: 97.25 %); format: functional
MDA-MB-231 [19] = experiment: Induction of ROS production in human MDA-MB-231 cells at 10 uM incubated for 24 hrs by flow cytometry analysis relative to control; format: functional
MCF7 [20] = experiment: Induction of cell death in human MCF7 cells assessed as upregulation of TNFRSF10B gene at 10 uM incubated for 24 hrs by RT-PCR analysis; format: functional, cell-based
MCF7 [21] = experiment: Induction of cell death in human MCF7 cells assessed as upregulation of HRK gene at 10 uM incubated for 24 hrs by RT-PCR analysis; format: functional, cell-based
MCF7 [22] = experiment: Induction of cell death in human MCF7 cells assessed as downregulation of RIPK gene at 10 uM incubated for 48 hrs by RT-PCR analysis; format: functional, cell-based
MCF7 [23] = experiment: Induction of cell death in human MCF7 cells assessed as upregulation of BECN1 gene at 10 uM measured after 48 hrs by RT-PCR analysis; format: functional, cell-based
MDA-MB-231 [24] = experiment: Induction of cell death in human MDA-MB-231 cells assessed as upregulation of BECN1 gene at 10 uM measured after 48 hrs by RT-PCR analysis; format: functional, cell-based
MCF7 [25] = experiment: Induction of cell death in human MCF7 cells assessed as downregulation of PARP gene at 10 uM measured after 48 hrs by RT-PCR analysis; format: functional, cell-based
MDA-MB-231 [26] = experiment: Induction of cell death in human MDA-MB-231 cells assessed as downregulation of MLKL gene at 10 uM measured after 48 hrs by RT-PCR analysis; format: functional, cell-based
MDA-MB-231 [27] = experiment: Induction of cell death in human MDA-MB-231 cells assessed as downregulation of PARP gene at 10 uM measured after 48 hrs by RT-PCR analysis; format: functional, cell-based
MDA-MB-231 [28] = experiment: Induction of apoptosis in human MDA-MB-231 cells assessed as PARP level at 10 uM incubated for 24 hrs by Western blot analysis (reference value: 1); format: functional
MCF7 [29] = experiment: Induction of apoptosis in human MCF7 cells assessed as pro-caspase 8 level at 10 uM incubated for 24 hrs by Western blot analysis (reference value: 1); format: functional
MCF7 [30] = experiment: Induction of apoptosis in human MCF7 cells assessed as cleaved pro-caspase 8 level at 10 uM incubated for 24 hrs by Western blot analysis (reference value: 1); format: functional
MDA-MB-231 [31] = experiment: Induction of apoptosis in human MDA-MB-231 cells assessed as pro-caspase 8 level at 10 uM incubated for 24 hrs by Western blot analysis (reference value: 1); format: functional
MDA-MB-231 [32] = experiment: Induction of apoptosis in human MDA-MB-231 cells assessed as pro-caspase 3 level at 10 uM incubated for 24 hrs by Western blot analysis (reference value: 1); format: functional
MCF7 [33] = experiment: Induction of endoplasmic reticulum stress in human MCF7 cells assessed as IRE1-alpha expression at 10 uM incubated for 24 hrs by Western blot analysis (reference value: 1); format: functional
MCF7 [34] = experiment: Induction of endoplasmic reticulum stress in human MCF7 cells assessed as BIP expression at 10 uM incubated for 24 hrs by Western blot analysis (reference value: 1); format: functional
MCF7 [35] = experiment: Induction of endoplasmic reticulum stress in human MCF7 cells assessed as CHOP expression at 10 uM incubated for 24 hrs by Western blot analysis (reference value: 1); format: functional
MDA-MB-231 [36] = experiment: Induction of endoplasmic reticulum stress in human MDA-MB-231 cells assessed as IRE1-alpha expression at 10 uM incubated for 24 hrs by Western blot analysis (reference value: 1); format: functional

## COC(=O)[C@@]1(C)CC[C@]2(C)CC[C@]3(C)[C@H](C(=O)C=C4[C@@]5(C)C=C(C#N)C(=O)C(C)(C)[C@@H]5CC[C@]43C)[C@@H]2C1
MCF7 [1]
  IC50: 4.22 µM
MDA-MB-231 [2]
  IC50: 6.83 µM
MDA-MB-231 [3]
  IC50: 5.97 µM
MCF7 [4]
  fold change (FC): 0.3
MCF7 [5]
  Activity: Active
MCF7 [6]
  Activity: Tde
MDA-MB-231 [7]
  Activity: Active
MDA-MB-231 [8]
  Activity: Tde
MCF7 [9]
  Activity: inactive
MCF7 [10]
  Activity: 0.2%
MCF7 [11]
  Activity: 10.8%
MDA-MB-231 [12]
  viability at 10 µM: 25.2%
MDA-MB-231 [13]
  Activity: 2.25%
MCF7 [14]
  Activity: Tde
[15]
  Activity: 60.2%
[16]
  Activity: 0.55%
[17]
  Activity: 24.55%
[18]
  Activity: 10.35%
MDA-MB-231 [19]
  Activity: 49.6%
MCF7 [20]
  Activity: Active
MCF7 [21]
  Activity: Active
MCF7 [22]
  Activity: Active
MCF7 [23]
  Activity: inactive
MDA-MB-231 [24]
  Activity: inactive
MCF7 [25]
  Activity: inactive
MDA-MB-231 [26]
  Activity: inactive
MDA-MB-231 [27]
  Activity: inactive
MDA-MB-231 [28]
  fold change (FC): 0.6
MCF7 [29]
  fold change (FC): 1.2
MCF7 [30]
  fold change (FC): 1.01
MDA-MB-231 [31]
  fold change (FC): 2.1
MDA-MB-231 [32]
  fold change (FC): 1.3
MCF7 [33]
  fold change (FC): 0.6
MCF7 [34]
  fold change (FC): 0.8
MCF7 [35]
  fold change (FC): 0.3
MDA-MB-231 [36]
  fold change (FC): 1.1
